From patent US20220380320A1 (priority 2019, published 2022)
pEC50: −log10 of the molar value.

Legend:
[1] = tested on: vero cells (ATCC CCL-81)
[2] = in vitro; conditions: African green monkey
[3] = tested on: MERS-CoV; experiment: microbe, parasite or virus in culture; type: cell-based; conditions: for pEC50: Middle East respiratory syndrome-related coronavirus, Vero, 24 h

SMILES	toxicity to host cells [1]	CC50 [2] [µM]	SI [3]	pEC50 [3]
Cc1cccc(C)c1OCC(=O)N[C@@H](Cc1ccccc1)[C@@H](O)C[C@H](Cc1ccccc1)NC(=O)[C@@](C)(C(C)C)N1CCCNC1=O [Compound 3, (R)-N-((2S,4S,5S)-5-(2-(2,6-dimethylphenoxy)acetamido)-4-hydroxy-1,6-diphenylhexane-2-yl)-2,3-dimethyl-2-(2-oxotetrahydropyrimidin-1(2H)-yl)butanamide]	minimal toxicity	> 50	–	–
Cc1cccc(C)c1OCC(=O)N[C@@H](Cc1ccccc1)[C@@H](O)C[C@H](Cc1ccccc1)NC(=O)[C@](C)(C(C)C)N1CCCNC1=O [Compound 2, (S)-N-((2S,4S,5S)-5-(2-(2,6-dimethylphenoxy)acetamido)-4-hydroxy-1,6-diphenylhexane-2-yl)-2,3-dimethyl-2-(2-oxotetrahydropyrimidin-1(2H)-yl)butanamide]	minimal toxicity	> 50	–	–
Cc1cccc(C[C@@H](C(=O)N[C@@H](Cc2ccccc2)C[C@H](O)[C@H](Cc2ccccc2)NC(=O)COc2c(C)cccc2C)N2CCCNC2=O)c1 [Compound 5, (S)-N-((2S,4S,5S)-5-(2-(2,6-dimethylphenoxy)acetamido)-4-hydroxy-1,6-diphenylhexane-2-yl)-2-(2-oxotetrahydropyrimidin-1(2H)-yl)-3-(m-tolyl)propanamide]	minimal toxicity	> 50	17.91	5.55
Cc1cccc(C)c1OCC(=O)N[C@@H](Cc1ccccc1)[C@@H](O)C[C@H](Cc1ccccc1)NC(=O)[C@H](Cc1cccs1)N1CCCNC1=O [Compound 10, (S)-N-((2S,4S,5S)-5-(2-(2,6-dimethylphenoxy)acetamido)-4-hydroxy-1,6-diphenylhexane-2-yl)-2-(2-oxotetrahydropyrimidin-1(2H)-yl)-3-(thiophen-2-yl)propenamide]	minimal toxicity	> 50	15.06	5.48
Cc1cccc(C)c1OCC(=O)N[C@@H](Cc1ccccc1)[C@@H](O)C[C@H](Cc1ccccc1)NC(=O)C1(N2CCCNC2=O)CCCC1 [Compound 4, N-((2S,4S,5S)-5-(2-(2,6-dimethylphenoxy)acetamido)-4-hydroxy-1,6-diphenylhexan-2-yl)-1-(2-oxotetrahydropyrimidine-1 (2H)-yl) cyclopentanecarboxamide]	minimal toxicity	> 50	6.53	5.12
Cc1cccc(C)c1OCC(=O)N[C@@H](Cc1ccccc1)[C@@H](O)C[C@H](Cc1ccccc1)NC(=O)[C@H](Cc1ccccc1)N1CCCNC1=O [Compound 1, (S)-N-((2S,4S,5S)-5-(2-(2,6-dimethylphenoxy)acetamido)-4-hydroxy-1,6-diphenylhexane-2-yl)-2-(2-oxotetrahydropyrimidin-1(2H)-yl)-3-phenylpropanamide]	minimal toxicity	> 50	21.74	5.69
Cc1cccc(C)c1OCC(=O)N[C@@H](Cc1ccccc1)[C@@H](O)C[C@H](Cc1ccccc1)NC(=O)[C@H](Cc1ccc(C(F)(F)F)cc1)N1CCCNC1=O [Compound 8, (S)-N-((2S,4S,5S)-5-(2-(2,6-dimethylphenoxy)acetamido)-4-hydroxy-1,6-diphenylhexane-2-yl)-2-(2-oxotetrahydropyrimidin-1(2H)-yl)-3-(4-(trifluoromethyl)phenyl)propanamide]	minimal toxicity	> 50	40.88	5.91
Cc1cccc(C)c1OCC(=O)N[C@@H](Cc1ccccc1)[C@@H](O)C[C@H](Cc1ccccc1)NC(=O)[C@H](C(C)C)N1CCCNC1=O [Positive control, Lopinavir, reference compound]	–	> 50	4.78	4.98
Cc1cccc(C)c1OCC(=O)N[C@@H](Cc1ccccc1)[C@@H](O)C[C@H](Cc1ccccc1)NC(=O)[C@H](Cc1ccc(F)cc1)N1CCCNC1=O [Compound 7, (S)-N-((2S,4S,5S)-5-(2-(2,6-dimethylphenoxy)acetamido)-4-hydroxy-1,6-diphenylhexane-2-yl)-3-(4-fluorophenyl)-2-(2-oxotetrahydropyrimidin-1(2H)-yl)propanamide]	minimal toxicity	> 50	23.96	5.68
Cc1cccc(C)c1OCC(=O)N[C@@H](Cc1ccccc1)[C@@H](O)C[C@H](Cc1ccccc1)NC(=O)[C@H](Cc1ccc(C#N)cc1)N1CCCNC1=O [Compound 9, (S)-3-(4-cyanophenyl)-N-((2S,4S,5S)-5-(2-(2,6-dimethylphenoxy)acetamido)-4-hydroxy-1,6-diphenylhexan-2-yl)-2-(2-oxotetrahydropyrimidin-1(2H)-yl)propanamide]	minimal toxicity	> 50	19.33	5.59
